Experimental data taken from DBAASP.
In brackets after ≈: the same amount, converted by molar mass.

What was measured:
Test in all cases: ≥ marks a high value that may be exact or a test limit, other limits are often not marked, values filed in µg/mL are converted to µM
[1] = tested on: Escherichia coli
[2] = tested on: Bacillus subtilis
[3] = tested on: Staphylococcus aureus
[4] = tested on: Bacillus cereus

Row | Structure (SMILES) | MIC [1] [µM] | MIC [2] [µM] | MIC [3] [µM] | MIC [4] [µM]
1 | CC[C@H](C)[C@H](N)C(=O)N[C@@H](CC(N)=O)C(=O)N[C@@H](Cc1ccccc1)C(=O)N[C@@H](CC(C)C)C(=O)N[C@@H](CCCCN)C(=O)N[C@@H](CC(C)C)C(=O)NCC(=O)N[C@@H](CCCCN)C(=O)N[C@@H](CCCCN)C(=O)N[C@H](C(=O)N[C@@H](CC(C)C)C(=O)NCC(=O)N[C@@H](C)C(=O)N[C@@H](CC(C)C)C(N)=O)[C@@H](C)CC [INFLKLGKKILGAL] | > 100 | 22.5 (≈ 34.4 µg/mL) | – | –
2 | CC(C)C[C@H](NC(=O)[C@H](CCCCN)NC(=O)[C@H](Cc1ccccc1)NC(=O)[C@@H](NC(=O)[C@H](CCCCN)NC(=O)CNC(=O)[C@H](CC(C)C)NC(=O)[C@@H](N)Cc1ccccc1)C(C)C)C(=O)N[C@@H](C)C(=O)N[C@@H](CO)C(=O)N[C@@H](CCCCN)C(=O)N[C@H](C(=O)N[C@@H](Cc1ccccc1)C(=O)N[C@@H](CCCCN)C(=O)N[C@@H](C)C(=O)N[C@H](C(=O)N[C@@H](Cc1ccccc1)C(=O)NCC(=O)N[C@@H](CCCCN)C(=O)N[C@H](C(=O)O)C(C)C)C(C)C)C(C)C [FLGKVFKLASKVFKAVFGKV] | 7.23 (≈ 16 µg/mL) | – | 1.81 (≈ 4 µg/mL) | 3.61 (≈ 8 µg/mL)
3 | CC(C)C[C@H](NC(=O)[C@H](CCCCN)NC(=O)[C@H](Cc1ccccc1)NC(=O)[C@@H](NC(=O)[C@@H](NC(=O)[C@H](CCCCN)NC(=O)[C@H](CC(C)C)NC(=O)[C@@H](N)Cc1ccccc1)C(C)C)C(C)C)C(=O)N[C@@H](C)C(=O)N[C@@H](CO)C(=O)N[C@@H](CCCCN)C(=O)N[C@H](C(=O)N[C@@H](Cc1ccccc1)C(=O)N1CCC[C@H]1C(=O)N[C@@H](C)C(=O)N[C@H](C(=O)N[C@@H](Cc1ccccc1)C(=O)NCC(=O)N[C@@H](CCCCN)C(=O)N[C@H](C(=O)O)C(C)C)C(C)C)C(C)C [FLKVVFKLASKVFPAVFGKV] | 14.4 (≈ 32 µg/mL) | – | 1.8 (≈ 4 µg/mL) | 7.19 (≈ 16 µg/mL)
4 | CC[C@H](C)[C@H](NC(=O)[C@H](CCCCN)NC(=O)[C@H](CCCCN)NC(=O)[C@H](Cc1c[nH]c2ccccc12)NC(=O)[C@@H](NC(=O)[C@@H](N)CC(N)=O)[C@@H](C)CC)C(=O)N[C@@H](Cc1ccccc1)C(=O)N[C@@H](CCC(=O)O)C(=O)N[C@@H](CCCCN)C(=O)N[C@H](C(=O)N[C@@H](CCCCN)C(=O)N[C@@H](CC(N)=O)C(=O)N[C@@H](CC(C)C)C(=O)N[C@H](C(N)=O)C(C)C)C(C)C [NIWKKIFEKVKNLV] | 25 (≈ 44 µg/mL) | 20 (≈ 35.2 µg/mL) | – | –
5 | CC[C@H](C)[C@H](N)C(=O)N[C@@H](CC(N)=O)C(=O)N[C@@H](Cc1c[nH]c2ccccc12)C(=O)N[C@@H](CCCCN)C(=O)N[C@@H](CCCCN)C(=O)N[C@H](C(=O)N[C@@H](C)C(=O)N[C@@H](CO)C(=O)N[C@H](C(=O)NCC(=O)N[C@@H](CCCCN)C(=O)N[C@@H](CCC(=O)O)C(=O)N[C@H](C(=O)N[C@@H](CC(C)C)C(=O)N[C@@H](CCCCN)C(=O)N[C@@H](C)C(N)=O)C(C)C)[C@@H](C)CC)[C@@H](C)CC [INWKKIASIGKEVLKA] | 75 (≈ 135 µg/mL) | ≥ 70 | – | –
6 | CC[C@H](C)[C@H](N)C(=O)N[C@@H](CC(N)=O)C(=O)N[C@@H](Cc1c[nH]c2ccccc12)C(=O)N[C@@H](CO)C(=O)N[C@@H](CO)C(=O)N[C@H](C(=O)N[C@@H](Cc1ccccc1)C(=O)N[C@@H](CCC(=O)O)C(=O)N[C@@H](CO)C(=O)N[C@H](C(=O)N[C@@H](CO)C(=O)N[C@@H](CC(N)=O)C(=O)N[C@@H](CC(C)C)C(=O)N[C@H](C(N)=O)C(C)C)C(C)C)[C@@H](C)CC [INWSSIFESVSNLV] | > 100 | ≥ 100 | – | –
7 | CC(C)C[C@H](NC(=O)[C@H](CCCCN)NC(=O)[C@H](Cc1ccccc1)NC(=O)[C@@H](NC(=O)[C@H](CCCCN)NC(=O)CNC(=O)[C@H](CC(C)C)NC(=O)[C@@H](N)Cc1ccccc1)C(C)C)C(=O)N[C@@H](C)C(=O)N[C@@H](CO)C(=O)N[C@@H](CCCCN)C(=O)N[C@H](C(=O)N[C@@H](Cc1ccccc1)C(=O)N1CCC[C@H]1C(=O)N[C@@H](CCCCN)C(=O)N[C@H](C(=O)N[C@@H](Cc1ccccc1)C(=O)NCC(=O)N[C@@H](CCCCN)C(=O)N[C@H](C(=O)O)C(C)C)C(C)C)C(C)C [FLGKVFKLASKVFPKVFGKV] | 7.14 (≈ 16 µg/mL) | – | 28.6 (≈ 64 µg/mL) | 14.3 (≈ 32 µg/mL)
8 | CC[C@H](C)[C@H](N)C(=O)N[C@@H](CC(N)=O)C(=O)N[C@@H](Cc1c[nH]c2ccccc12)C(=O)N[C@@H](CC(C)C)C(=O)N[C@@H](CCCCN)C(=O)N[C@@H](CC(C)C)C(=O)NCC(=O)N[C@@H](CCCCN)C(=O)N[C@@H](CCCCN)C(=O)N[C@H](C(=O)N[C@@H](CC(C)C)C(=O)NCC(=O)N[C@@H](C)C(=O)N[C@H](C(N)=O)[C@@H](C)CC)[C@@H](C)CC [INWLKLGKKILGAI] | 67.5 (≈ 106 µg/mL) | 25 (≈ 39.2 µg/mL) | – | –
9 | CC(C)C[C@H](NC(=O)[C@H](CCCCN)NC(=O)[C@H](Cc1ccccc1)NC(=O)[C@@H](NC(=O)[C@H](CCCCN)NC(=O)[C@H](CCCCN)NC(=O)[C@H](CC(C)C)NC(=O)[C@@H](N)Cc1ccccc1)C(C)C)C(=O)N[C@@H](C)C(=O)N[C@@H](CO)C(=O)N[C@@H](CCCCN)C(=O)N[C@H](C(=O)N[C@@H](Cc1ccccc1)C(=O)N1CCC[C@H]1C(=O)N[C@@H](C)C(=O)N[C@H](C(=O)N[C@@H](Cc1ccccc1)C(=O)NCC(=O)N[C@@H](CCCCN)C(=O)N[C@H](C(=O)O)C(C)C)C(C)C)C(C)C [FLKKVFKLASKVFPAVFGKV] | 1.77 (≈ 4 µg/mL) | – | 28.4 (≈ 64 µg/mL) | 14.2 (≈ 32 µg/mL)
10 | CC[C@H](C)[C@H](NC(=O)[C@H](CC(C)C)NC(=O)[C@H](C)NC(=O)[C@@H]1CCCN1C(=O)[C@H](CC(C)C)NC(=O)CN)C(=O)N[C@@H](CO)C(=O)N[C@@H](Cc1c[nH]c2ccccc12)C(=O)N[C@@H](CO)C(=O)N[C@@H](CCCCN)C(=O)N[C@@H](CCCN=C(N)N)C(=O)N[C@@H](CCCCN)C(=O)N[C@@H](CCCN=C(N)N)C(=O)N[C@@H](CCC(N)=O)C(=O)N[C@@H](CCC(N)=O)C(N)=O [GLPALISWSKRKRQQ] | > 53.4 | ≥ 40 | 53.3 (≈ 94.1 µg/mL) | –
11 | CC(C)C[C@H](NC(=O)[C@@H](N)Cc1ccccc1)C(=O)N[C@@H](CCCCN)C(=O)N[C@H](C(=O)N[C@H](C(=O)N[C@@H](Cc1ccccc1)C(=O)N[C@@H](CCCCN)C(=O)N[C@@H](CCCCN)C(=O)N[C@@H](C)C(=O)N[C@@H](CO)C(=O)N[C@@H](CCCCN)C(=O)N[C@H](C(=O)N[C@@H](Cc1ccccc1)C(=O)N1CCC[C@H]1C(=O)N[C@@H](C)C(=O)N[C@H](C(=O)N[C@@H](Cc1ccccc1)C(=O)NCC(=O)N[C@@H](CCCCN)C(=O)N[C@H](C(=O)O)C(C)C)C(C)C)C(C)C)C(C)C)C(C)C [FLKVVFKKASKVFPAVFGKV] | 57.1 (≈ 128 µg/mL) | – | > 57.1 | ≥ 57.1
12 | CC(C)C[C@H](NC(=O)[C@H](CCCCN)NC(=O)[C@H](Cc1ccccc1)NC(=O)[C@@H](NC(=O)[C@@H](NC(=O)[C@H](CCCCN)NC(=O)[C@H](CC(C)C)NC(=O)[C@@H](N)Cc1ccccc1)C(C)C)C(C)C)C(=O)N[C@@H](C)C(=O)N[C@@H](CO)C(=O)N[C@@H](CCCCN)C(=O)N[C@H](C(=O)N[C@@H](Cc1ccccc1)C(=O)NCC(=O)N[C@@H](C)C(=O)N[C@H](C(=O)N[C@@H](Cc1ccccc1)C(=O)NCC(=O)N[C@@H](CCCCN)C(=O)N[C@H](C(=O)O)C(C)C)C(C)C)C(C)C [FLKVVFKLASKVFGAVFGKV] | 58.6 (≈ 128 µg/mL) | – | 7.32 (≈ 16 µg/mL) | 7.32 (≈ 16 µg/mL)
